Experimental data taken from ChEMBL document CHEMBL5241112, “Insights into the recent progress in the medicinal chemistry of pyranopyrimidine analogs” (RSC Med Chem, 2022).
Values after ≈ are worked out from the molar mass of the structure shown.

Experiments:
PANC-1 = experiment: Antiproliferative activity against human PANC-1 cells assessed as reduction in cell viability by MTT assay; format: functional, cell-based
HT-29 = experiment: Antiproliferative activity against human HT-29 cells assessed as reduction in cell viability by MTT assay; format: functional, cell-based
MDA-MB-231 = experiment: cells; conditions: Homo sapiens
[1] = Antioxidant activity assessed as trolox equivalent of ABTS radical scavenging activity and measured after 6 mins by UV-vis spectrophotometry; format: functional
Escherichia coli [2] = experiment: Antibacterial activity against Escherichia coli ATCC 25922 assessed as diameter of inhibition zone at 50 mg/ml incubated for 24 hrs by paper disk diffusion method; format: functional; conditions: read-out: DIZ
DNA gyrase = DNA gyrase (Escherichia coli, UniProt P0AES4+P0AES6); experiment: Inhibition of Escherichia coli DNA gyrase; format: protein-complex assay
Aspergillus fumigatus [3] = experiment: Antifungal activity against Aspergillus fumigatus ATCC204305 assessed as inhibition of […] growth incubated for 24 hrs by disk diffusion method; format: functional
Aspergillus fumigatus [4] = experiment: microbe, parasite or virus in culture; format: functional; conditions: ATCC204305, dose 50 mg/ml, time 24 hrs, read-out: DIZ
Klebsiella pneumoniae [5] = experiment: Antibacterial activity against Klebsiella pneumoniae MGH 78578 assessed as diameter of inhibition zone at 50 mg/ml incubated for 24 hrs by paper disk diffusion method; format: functional; conditions: read-out: DIZ
[6] = Inhibition of Escherichia coli topoisomerase 4 assessed as reduction in decatenation
Penicillium italicum = experiment: microbe, parasite or virus in culture; format: functional; conditions: CECT 2294, dose 50 mg/ml, time 24 hrs, read-out: DIZ
[7] = test system: Staphylococcus epidermidis; experiment: Antibacterial activity against Staphylococcus epidermidis ATCC12228 assessed as inhibition of bacterial growth incubated for 24 hrs by disk diffusion method; format: functional
Capra hircus [8] = species: Capra hircus; experiment: Inhibition of goat lens AR assessed as gibbs binding free energy
Capra hircus [9] = species: Capra hircus; experiment: Inhibition of goat lens AR at 100 uM incubated for 10 mins in presence of NADPH by spectroscopic analysis
[10] = Antioxidant activity assessed as hydroxyl radical scavenging activity incubated for 5 mins by spectrophotometric analysis; format: functional; design: concentration or dose not given beside the values
[11] = Antioxidant activity assessed as DPPH radical scavenging activity incubated for 20 mins by spectrophotometric analysis; format: functional; design: concentration or dose not given beside the values
Klebsiella pneumoniae [12] = experiment: Antimicrobial activity against Klebsiella pneumoniae ATCC 15380 assessed as diameter of inhibition zone at 20 mg/ml incubated for 24 hrs by disk diffusion method; format: functional; conditions: read-out: DIZ
Citrobacter freundii = experiment: Antimicrobial activity against Citrobacter freundii ATCC 8090 assessed as diameter of inhibition zone at 20 mg/ml incubated for 24 hrs by disk diffusion method; format: functional; conditions: read-out: DIZ
Salmonella typhimurium = experiment: Antimicrobial activity against Salmonella typhimurium ATCC 19430 assessed as diameter of inhibition zone at 20 mg/ml incubated for 24 hrs by disk diffusion method; format: functional, Salmonella enterica subsp. enterica serovar Typhimurium; conditions: Salmonella enterica, read-out: DIZ
Pseudomonas aeruginosa = experiment: Antimicrobial activity against Pseudomonas aeruginosa ATCC 27853 assessed as diameter of inhibition zone at 20 mg/ml incubated for 24 hrs by disk diffusion method; format: functional; conditions: read-out: DIZ
Escherichia coli [13] = experiment: Antimicrobial activity against Escherichia coli ATCC 25922 assessed as diameter of inhibition zone at 20 mg/ml incubated for 24 hrs by disk diffusion method; format: functional; conditions: read-out: DIZ
Serratia marcescens = experiment: Antibacterial activity against Serratia marcescens assessed as diameter of inhibition zone by disc diffusion method; format: functional
Bacillus cereus = experiment: Antibacterial activity against Bacillus cereus assessed as diameter of inhibition zone by disc diffusion method; format: functional
Aspergillus ochraceus = experiment: Antifungal activity against Aspergillus ochraceus assessed as diameter of inhibition zone by disc diffusion method; format: functional
Penicillium chrysogenum = experiment: Antifungal activity against Penicillium chrysogenum assessed as diameter of inhibition zone by disc diffusion method; format: functional
Escherichia coli [14] = experiment: Antibacterial activity against Escherichia coli MTCC 443 assessed as bacterial growth inhibition by broth microdilution method; format: functional
[15] = test system: Mycobacterium tuberculosis; experiment: Antitubercular activity against Mycobacterium tuberculosis H37Rv assessed as bacterial growth inhibition at 250 ug/ml; format: functional
[16] = test system: Mycobacterium tuberculosis; experiment: Antitubercular activity against Mycobacterium tuberculosis H37Rv assessed as bacterial growth inhibition at 100 ug/ml; format: functional
Plasmodium falciparum = experiment: microbe, parasite or virus in culture
[17] = test system: Mycobacterium tuberculosis; experiment: Antimicrobial activity against Mycobacterium tuberculosis H37Rv assessed reduction bacterial growth at 100 ug/ml incubated for 24 hrs by Lowensteine-Jensen method; format: functional; design: scale not given: the % may be the effect or the level left; conditions: dose 100 µg/ml
[18] = Cytotoxicity against human HDF cells assessed as reduction in cell viability by MTT assay; format: toxicity, cell-based; conditions: HDF cells (NHDF cell line)

What does the source list for `COc1cc([C@@H]2c3cc4c(cc3[C@@H](O[C@@H]3O[C@@H]5CO[C@@H](C)O[C@H]5[C@H](O)[C@H]3O)[C@H]3COC(=O)[C@H]23)OCO4)cc(OC)c1O` [ETOPOSIDE]?
IC50 (PANC-1): 24.4 µM; IC50 (HT-29): 25.6 µM; IC50 (MDA-MB-231): 30.6 µM

With `CCOC(=O)C1=C(N)Oc2[nH]c(=O)[nH]c(=O)c2C1[C@H](O)[C@@H](O)[C@H](O[C@H]1O[C@H](CO)[C@@H](O)[C@H](O)[C@H]1O)[C@H](O)CO` (stereo partly drawn) as the molecule, how does the Activity [1] read?
Its Activity is 5.24 µM.

What does the source list for `Nc1nc(=S)[nH]c2c1C(c1ccc(Cl)cc1)C=C(c1cc3ccccc3oc1=O)O2` (stereo not drawn)?
zone of inhibition at 50000 µg/mL (Escherichia coli [2]): 10 mm; IC50 (DNA gyrase): 0.00491 µM; MIC (Aspergillus fumigatus [3]): 15.5 µg/mL (≈ 35.6 µM); zone of inhibition at 50000 µg/mL (Aspergillus fumigatus [4]): 10 mm; zone of inhibition at 50000 µg/mL (Klebsiella pneumoniae [5]): 12 mm; IC50 [6]: 0.341 µM; zone of inhibition at 50000 µg/mL (Penicillium italicum): 16 mm; MIC [7]: 15.3 µg/mL (≈ 35.1 µM)

For `Cc1nn(-c2ccccc2)c(Cl)c1C1c2[nH]c(=O)[nH]c(=O)c2Oc2c1c(=O)oc1ccccc21` (stereo not drawn), which deltaG (Capra hircus [8]) is on record?
The deltaG was -10.4 kcal/mol.

And the inhibition (Capra hircus [9])?
The inhibition was 60%.

And the Activity [10]?
The Activity was 54.3%.

What about the Activity [11] of the same molecule?
The Activity was 59.1%.

Which zone of inhibition at 20000 µg/mL (Klebsiella pneumoniae [12]) does the source give for `Cc1csc(C2C(C#N)=C(N)Oc3[nH]c(=O)[nH]c(=O)c32)c1` (stereo not drawn) here?
The zone of inhibition at 20000 µg/mL was 16 mm.

What about the zone of inhibition at 20000 µg/mL (Citrobacter freundii) of the same molecule?
Its zone of inhibition at 20000 µg/mL is 12 mm.

What about the zone of inhibition at 20000 µg/mL (Salmonella typhimurium) of the same molecule?
The zone of inhibition at 20000 µg/mL was 20 mm.

What about the zone of inhibition at 20000 µg/mL (Pseudomonas aeruginosa) of the same molecule?
The zone of inhibition at 20000 µg/mL was 18 mm.

And the zone of inhibition at 20000 µg/mL (Escherichia coli [13])?
The zone of inhibition at 20000 µg/mL was 14 mm.

For `CCOC(=O)c1nc2c3c(ncn2n1)Oc1ccc2cc(Br)ccc2c1C3`, which “diameter of the inhibition zone (DIZ)” value (Serratia marcescens) is on record?
The value was 24 mm.

What about the “diameter of the inhibition zone (DIZ)” value (Bacillus cereus) of the same molecule?
Its value is 23 mm.

What about the “diameter of the inhibition zone (DIZ)” value (Aspergillus ochraceus) of the same molecule?
The value was 17 mm.

What about the “diameter of the inhibition zone (DIZ)” value (Penicillium chrysogenum) of the same molecule?
Its value is 22 mm.

With `CCOC(=O)C1=C(N)Oc2[nH]c(=O)[nH]c(=O)c2C1c1c(C)nn(-c2ccccc2)c1-n1ccnc1` (stereo not drawn) as the molecule, how does the MIC (Escherichia coli [14]) read?
Its MIC is 100 µg/mL (≈ 210 µM).

And the inhibition at 250 µg/mL [15]?
The inhibition at 250 µg/mL was 37%.

And the inhibition at 100 µg/mL [16]?
The inhibition at 100 µg/mL was 30%.

And the IC50 (Plasmodium falciparum)?
Its IC50 is 0.97 µg/mL (≈ 2.04 µM).

And the Activity [17]?
Its Activity is 92%.

Which results are given for `N#CC1=C(N)Oc2[nH]c(=O)[nH]c(=O)c2C12c1cc(Br)ccc1-n1c2nc2ccccc2c1=O` (stereo not drawn)?
IC50 (PANC-1; read-out: IC50): 14.2 µM; IC50 [18]: > 100 µM; IC50 (MDA-MB-231): 10.9 µM
